This is an account of results in patent publication US20110224147A1, “METHODS AND COMPOSITIONS” (Relevare Aust. Pyt. Ltd., priority 2008, published 2011).

The test system of one series is normal rats. Put plainly: Open field activity monitor (sedation), normal rats. The method, then:
(§1) All experiments were performed on male Wistar rats, weight 170-220 g for experiments investigating sedation and antinociception using the carrageenan inflammation paradigm and weight 120-200 g for experiments evaluating sedation and antinociception using the diabetic neuropathy model. The experiments were performed in an observer-blinded fashion with parallel positive placebo (gabapentin) and negative placebo (vehicle) treatment controls. All drug solutions and vehicle were given intraperitoneally (ip) in a volume of 1.0 ml.
(§2) Measurement of the movements of a freely moving rat in an open field activity monitor was used. […] The maximum non-sedating doses of each compound alone and in combination were first determined in normal rats and then those doses were tested for sedation in diabetic rats. This was done to be sure that there was no sedation caused by the drugs, particularly in diabetics that are known to be more susceptible to CNS depressants.
(§3) The open field activity monitor (MedAssociates Inc. St. Albans, Vt. 05478, USA) is an enclosure with a quiet and darkened environment. It contains 16 intersecting beams of infrared light. Interruptions of beams by individual rats moving around the enclosure were recorded by computer. These measurements were converted to the total rest time in seconds during a 20 min period in the apparatus. Rest times of drug-treated rats were compared with vehicle-treated controls using ANOVA with Dunnet post hoc test.
(§4) Animals naïve to drug treatment were acclimatized to the lab environment and individual rats were selected randomly from a group one at a time. They were injected (ip) with vehicle, a test drug dose or a combination of drugs in an operator-blinded fashion. Five minutes after the ip injection each rat was placed in the open field activity monitor for a 20-min period.
(§5) Groups of rats were tested with the open field activity monitor as above with the following ip treatments: • vehicle controls, n=121 experiments • CNSB002 at doses 10 and 20 mg/kg, n=20 and 10 experiments • morphine at doses 6.4 and 3.2 mg/kg, n=21 and 20 experiments • a combination of CNSB002 at 10 mg/kg with morphine at 3.2 mg/kg, n=21 experiments • a combination of CNSB002 at 5.0 mg/kg with morphine at 3.2 mg/kg, n=19 experiments • gabapentin at doses of 100 and 50 mg/kg, n=26 each experiments • a combination of GABApentin at 50 mg/kg with morphine at 3.2 mg/kg, n=19 experiments

Another series relates to diabetic rats. Nature of the series: Open field activity monitor (sedation), diabetic rats. As to the method: as §1, §2, §3, §4, §5
Rats were injected ip with streptozotocin (STZ; […] total dose) dissolved in 0.9% w/v sodium chloride solution. The 150 mg dose was given in two 75 mg/kg injections on consecutive days. Diabetes was confirmed one week after injection of STZ by measurement of tail vein blood glucose levels with AccuCheck Active test strips and a reflectance colorimeter (AccuCheck Glucometer, Roche). Only animals with final blood glucose levels ≧15 mM were deemed to be diabetic. The rats were retested for hyperglycaemia once per week to confirm continued high blood glucose readings. Hyperalgesia was assessed by measurement of paw flick latency using the radiant heat plantar test described previously by Hargreaves et al, 1988 supra.

In series [1] the test system is carrageenan-induced hyperalgesia. Put plainly: Carrageenan paw inflammation test (paw withdrawal latency, noxious heat). The class given is in vivo, rat. The conditions noted are these: for antinociception, significance vs vehicle controls: p>0.05. As to the method:
as §1
Two tests for antinociception were used: the carrageenan paw inflammation test; and the streptozotocin-induced diabetic neuropathy model. Inflammation of the right hind paw was induced by an intraplantar injection of carrageenan (100 μl of a 2% w/v carrageenan solution in saline). Time was allowed for paw inflammation to develop (2 hours). Paw withdrawal latencies were measured using noxious heat from an infrared beam focused onto the plantar surface of the right hind paw in unrestrained animals using apparatus from Ugo Basile (via G. Borghi 43, 21025 Comerio VA—Italy). The method used was originally described by Hargreaves et al, Pain 32:77-88, 1988.
Paw withdrawal latencies were measured at 10 min intervals before the induction of inflammation with carrageenan injection until 3 stable baseline readings were obtained (baseline readings—see FIG. 1). […] A test drug or drug combination was injected intraperitoneally and paw withdrawal values were measured at 10-minute intervals for the following 30 minutes (test drug readings—see FIG. 1).
The following drug treatments were given ip to separate groups of rats: • vehicle controls, n=63 • CNSB002 at dose range 0.5 mg/kg to 10 mg/kg alone, n=14 each • morphine at dose range 0.2 mg/kg to 3.2 mg/kg alone, n=10 each • combinations of CNSB002 at 5 mg/kg with morphine at 0.2, 0.4, 0.8, 1.6 and 3.2 mg/kg, n=10 each • gabapentin alone at 50 mg/kg, n=20 • combination of gabapentin at 50 mg/kg with morphine 3.2 mg/kg, n=20
Drug and placebo/vehicle treatments were compared statistically using ANOVA with Tukey-Kramer post hoc test.
A general note: The carrageenan paw model is a standard test of acute inflammation.

In series [2] the test system is hyperalgesia caused by STZ-induced diabetic neuropathy. Put plainly: Streptozotocin-induced diabetic neuropathy model (paw flick latency, radiant heat plantar test). Conditions: diabetic rats. The format is in vivo, rat.
Where [3] appears, read: gabapentin 50 mg/kg ip alone, p<0.01.
Setting [4] is: morphine 3.2 mg/kg ip alone, p<0.05.
Setting [5] is: male, Wistar, rat, in vivo, ip, 10 mg/kg, 20 min.
Where [6] appears, read: CNSB002 10 mg/kg ip alone, p<0.01.

Molecules are shown by their SMILES. Marks after values point to notes of the source that are not given here.

Take `NCC1(CC(=O)O)CCCCC1` [gabapentin]: the “total rest time during a 20 min period (mean)” value is 753.0 s in the series on normal rats (normal rats, gabapentin 50 mg/kg ip alone, Table 1C); 881.6* seconds with normal rats (normal rats, gabapentin 100 mg/kg ip alone, Table 1C); 985.8 s with diabetic rats (diabetic rats, gabapentin 50 mg/kg ip alone, Table 2A); 941.2 s in the series on diabetic rats (diabetic rats, gabapentin 100 mg/kg ip alone, Table 2A). Moreover, the “sedation vs vehicle controls” value is “did not cause sedation” in the series with normal rats (normal rats, gabapentin 50 mg/kg ip alone, p>0.05); “caused significant sedation” in the series on normal rats (normal rats, gabapentin 100 mg/kg ip alone, p<0.01); “not sedating” in the series on diabetic rats (diabetic rats, gabapentin 50 mg/kg ip alone, p>0.05); “not sedating” in the series on diabetic rats (diabetic rats, gabapentin 100 mg/kg ip alone, p>0.05). Besides, the “antinociception, significance vs vehicle controls” value in series [1] (gabapentin 50 mg/kg ip alone) is given as “No dose of gabapentin or CNSB002 administered alone caused statistically-significant antinociception”; in series [2] (setting [3]), “equally significant antinociception”. For the same compound, in series [2] (setting [3]), the reversal of hyperalgesia is recorded as 26%.
On to `CN1CC[C@]23c4c5ccc(O)c4O[C@H]2[C@@H](O)C=C[C@H]3[C@H]1C5` [morphine], for which the “sedation vs vehicle controls” value in the series with normal rats (normal rats, doses of morphine up to 6.4 mg/kg ip) is “sedation was not caused”; in the series on normal rats (normal rats, morphine 3.2 mg/kg ip alone, p>0.05 unpaired t test), “did not cause sedation”; in the series with diabetic rats (diabetic rats, morphine 3.2 mg/kg ip alone, p>0.05) it was “not sedating”; in the series with diabetic rats (diabetic rats, morphine 6.4 mg/kg ip alone, p<0.01), “caused sedation”. The “total rest time during a 20 min period (mean)” value with normal rats (normal rats, morphine 3.2 mg/kg ip alone, Table 1B) is 961.0 s; in the series on diabetic rats (diabetic rats, morphine 3.2 mg/kg ip alone, Table 2A) it was 943.6 s; in the series with diabetic rats (diabetic rats, morphine 6.4 mg/kg ip alone, Table 2B), 972.6* seconds. Further, the “reversal of carrageenan-induced hyperalgesia” value in series [1] (morphine 3.2 mg/kg ip alone) is on record as 24%. Besides, the “antinociception, significance vs vehicle controls” value in series [1] (morphine 0.2-3.2 mg/kg ip alone) is recorded as “caused no significant antinociception”; in series [2] (setting [4]), “significant antinociceptive effect”; in series [2] (morphine alone ip, doses below the highest dose 3.2 mg/kg, p>0.05), “No dose of morphine alone caused significant antinociception”. Further, the reversal of hyperalgesia in series [2] (setting [4]) was 30%.
For `CC(C)(C)c1cc(CN2CCN(CC(O)c3ccc(Cl)cc3)CC2)cc(C(C)(C)C)c1O` (stereo not shown) [CNSB002, 1-(2-(4-chlorophenyl)-2-hydroxy)ethyl-4-(3,5-bis(1,1-dimethyl)-4-hydroxyphenyl)methylpiperazine], the “total rest time during a 20 min period (mean)” value in the series with normal rats (setting [5]) was 851.2 s; with normal rats (male, Wistar, rat, in vivo, ip, 20 mg/kg, 20 min) it was 1001.2* seconds; in the series with diabetic rats (setting [5]), 1005.6 s. Further, the “sedation vs vehicle controls” value with normal rats (rat, in vivo, ip, 10 mg/kg) is recorded as “did not cause sedation”; with normal rats (rat, in vivo, ip, 20 mg/kg), “sedating”; in the series with diabetic rats (rat, in vivo, ip, 10 mg/kg) it was “not sedating”. Further, the “reversal of carrageenan-induced hyperalgesia” value in series [1] (CNSB002 5 mg/kg ip alone) and in series [1] (CNSB002 10 mg/kg ip alone) was 35% each time. Besides, the “antinociception, significance vs vehicle controls” value is “No dose of gabapentin or CNSB002 administered alone caused statistically-significant antinociception” in series [1] (CNSB002 0.5-10 mg/kg ip alone), “significant antinociceptive effect” in series [2] (setting [6]) and “No other doses of CNSB002 administered alone caused significant antinociception” in series [2] (CNSB002 doses other than 10 mg/kg (0.5-5 mg/kg) ip alone). Besides, in series [1] (CNSB002 5 or 10 mg/kg ip alone), the “antinociception compared with CNSB002 at 0.5 mg/kg” value is on record as “significantly greater”. Also, the “antinociception compared with CNSB002 at 0.5, 1.0 and 2.5 mg/kg” value in series [2] (CNSB002 10 mg/kg ip alone, not vs 5 mg/kg) is reported as “significantly greater”. In addition, the reversal of hyperalgesia in series [2] (setting [6]) was determined as 26%.
